Source: patent US20030232340A1 (priority 2002, published 2003)

Target: T1, Concanavalin A (Canavalia ensiformis, UniProt P02866)
T1 construct: purchased Sigma C-5275
Experiment: Homogeneous cubic phase dispersion assay: displacement of biotinylated mannotriose-avidin/HRP, Dextran Blue detection
Type: binding
Conditions: 500 microliters of saturated solution added to 3.0 ml
Procedure: Experimental Results—A cubic phase was first prepared by mixing 0.752 grams of Pluronic P123 (an insoluble surfactant), 0.705 grams of linalool, and 0.703 grams of water. An amount of 1.005 grams of this cubic phase was put in a glass flask together with 0.054 grams of the rhamnolipid surfactant JBR-99 (Jeneil Biosurfactant, Inc.) and 35 ml of pH 4.5 acetate buffer containing 4 mM MnCl2 and 4 mM CaCl2. The flask was then sonicated to disperse the cubic phase. Following this, the dispersion was microfluidized in a model 110S Microfluidizer (Microfluidics, Inc.) to a particle size that was fine enough where the absorbance measured on an Ultrospec 3000 UV-Vis spectrometer, at a wavelength of 620 nm, was about 0.2 absorbance units.
The following reagents were then added to 2 ml of the cubic phase dispersion: […]
After the addition of the Dextran Blue-based Detection System, absorbance readings at 620 nm were monitored continuously. After the readings stabilized at 0.40 absorbance units, 500 microliters of Displacement Solution were added. […]
Upon addition of this alpha methylmannoside—the analyte—the absorbance dropped from 0.40 to 0.26 absorbance units. […] The majority of the decrease in absorbance was due to the enzymatic action of displaced HRP on the Dextran Blue.

COC1O[C@H](CO)[C@@H](O)[C@H](O)[C@@H]1O (stereo partly drawn) [alpha methylmannoside]
decrease in absorbance at 620 nm (14% expected from dilution alone): 35%
absorbance at 620 nm after addition of analyte (reading before addition 0.40): 0.26 absorbance units
